{
  "source": "patent US20240251807A1",
  "about": "“SYSTEMS AND METHODS FOR DISPERSING ACTIVE INGREDIENTS” (Hazel Technologies, Inc., priority 2021, published 2024)",
  "assay_type_in_all_cases": "physicochemical",
  "key": {"[1]": {"assay": "1-MCP buildup and retention in sealed vs unsealed apple storage room, box fan device", "settings": "2-6° C., after 15 hours of running the fan, 0.5 kg activated carbon bed", "protocol": "This example describes release of an active ingredient into an enclosure using a device and system as described in this disclosure. Specifically, gaseous 1-MCP buildup and retention in an enclosure in the form of a sealed apple room was compared to buildup and retention in an unsealed apple storage room.\nA pump in the form of a 20″×20″ box fan was placed inside of a 33,264 cubic foot apple storage room kept at a temperature between 2-6° C., with the fan facing up and elevated several inches from the ground to allow space for air to enter the fan from below. The device was assembled by placing a metal air filter housing and a 20″×20″ air filter (Nordic Pure® Part 20201.8-3) on top of the fan, to which was added a 0.5 kg bed of a particulate delivery material in the form of activated carbon powder associated with an activate ingredient in the form of 1-MCP. Another identical 20″×20″ air filter was placed on top of the 1-MCP-loaded activated carbon and secured with a clamp. The apple storage room was vacated by the user and sealed before the fan was turned on. […] The C2H4 sensor was calibrated for 1-MCP by comparison with gas chromatography readings, and reported values in millivolts which were subtracted from baseline readings for the detector and then converted via the calibration curve to concentration measurements. […]"}, "[2]": {"assay": "1-MCP release, dry forced-air (duct fan) vs water-based release in sealed apple storage room", "settings": "sealed room 2-6° C.", "protocol": "This example describes a comparison of active ingredient release profiles and rates using a device and system of this disclosure as compared to an existing technique. Specifically, gaseous 1-MCP release via pump-driven gaseous fluid flow was compared to water-based release of 1-MCP.\nA pump in the form of a duct fan was placed inside of a 30,624 cubic foot apple storage room kept between 2-6° C. The fan was placed facing up onto two iron bars to allow space for air to enter below the fan. The device was assembled by placing a 12″ mesh sieve on top of the duct fan, to which was added a 1 kg bed of a particulate delivery material in the form of activated carbon powder associated with an activated ingredient in the form of 1-MCP. The sieve and delivery material was then contained by placing a pair of nylon stockings over the opening of the sieve and sealing it all with duct tape. The room was vacated by the user and sealed before the fan was turned on. […] At the same time, a comparative experiment was performed by placing, in an adjacent identical apple storage room, a bucket containing 12 L of distilled water and 4 aerators (each of which produced 0.024 cubic feet per min, 0.096 cubic feet per minute total). […] The 1-MCP levels in the sealed apple storage room for the second, comparative experiment was measured in the same manner as described above."}, "[3]": {"assay": "1-MCP release with pump vs without pump in sealed apple storage room", "settings": "box fan on vs off, first 240 minutes, 0.5 kg activated carbon bed, sealed room 2-6° C.", "protocol": "This example describes the effect of directing gaseous fluid flow through a delivery material on the rate of release of active ingredients. Specifically, gaseous 1-MCP release via pump-driven gas flow was compared to release in the absence of pump-driven flow.\nA pump in the form of a 20″×20″ box fan was placed inside of a 33,264 cubic foot apple storage room kept at a temperature between 2-6° C., with the fan facing up and elevated several inches from the ground to allow space for air to enter the fan from below. The device was assembled by placing a metal air filter housing and a 20″×20″ air filter (Nordic Pure® Part 20201.8-3) on top of the fan, to which was added a 0.5 kg bed of a particulate delivery material in the form of activated carbon powder associated with an activated ingredient in the form of 1-MCP. Another identical 20″×20″ air filter was placed on top of the 1-MCP-loaded activated carbon and secured with a clamp. The apple storage room was vacated by the user and sealed before the fan was turned on. At the same time, in an adjacent, identical apple storage room, a second, identical device described above was set up with a 0.5 kg bed of activated carbon powder associated with 1-MCP. However, the fan of this second device was not turned on."}, "[4]": {"assay": "1-MCP release rate as a function of air speed", "settings": "five air speeds and 0 m/s, 0.5 kg activated carbon powder, sealed room of approximately 30,000 cubic feet", "protocol": "This example describes the release rate of an active ingredient from a delivery material as a function of gaseous fluid flow rate through the delivery material. Specifically, the rate of gaseous 1-MCP release via pump-driven air flow was measured as a function of the air flow rate.\nIn a sealed apple storage room of approximately 30,000 cubic feet, 0.5 kg of a particulate delivery material in the form of activated carbon powder associated with an activated ingredient in the form of 1-MCP was held in front of pumps in the form of fans with known air speeds for greater than 2 hours each. The fan type and geometry was varied to access various air speeds. The concentration of 1-MCP in the atmosphere of the sealed apple storage room was monitored using measurements from a detector making use of the C2H4 sensor described in Example 1, and release rates were calculated at five different air speeds, as well as at a flow rate of 0 m/s."}},
  "data": [
    {"smiles": "CC1=CC1", "note": "[1-MCP, 1-methylcyclopropene]", "values": [
      {"measurement": "measured 1-MCP level in room", "setting": "[1]; sealed apple storage room", "result": "greater 1-MCP level"},
      {"measurement": "measured 1-MCP level in room", "setting": "[1]; unsealed apple storage room (portal door open)", "result": "significant level of 1-MCP"},
      {"measurement": "duration of sustained release", "setting": "[2]; dry forced-air release method, duct fan", "result": "> 170", "unit": "min"},
      {"measurement": "increase in rate of release, dry forced-air release vs water-based release", "setting": "[2]; initial slope of concentration profiles, 1 kg activated carbon bed", "result": 16, "unit": "fold"},
      {"measurement": "1-MCP release with pump compared to no pump", "setting": "[3]", "result": "released at a greater rate and in greater amounts"},
      {"measurement": "1-MCP release rate as a function of air speed", "setting": "[4]", "result": "greater rate when faster air speeds were used"}
    ]}
  ]
}
